The record followed here is patent US7645752B2, “Sulfonyl substituted 1H-indoles as ligands for the 5-hydroxytryptamine receptors” (Wyeth LLC, priority 2006, dated 2010).

pKi: −log10 of the molar value.

The target of one experiment is T1, human cloned 5-HT6 receptors (Homo sapiens, UniProt P50406).
T1 construct: expressed in transfected cells; host or cells: HeLa cells
T1 sequence (P50406 whole entry): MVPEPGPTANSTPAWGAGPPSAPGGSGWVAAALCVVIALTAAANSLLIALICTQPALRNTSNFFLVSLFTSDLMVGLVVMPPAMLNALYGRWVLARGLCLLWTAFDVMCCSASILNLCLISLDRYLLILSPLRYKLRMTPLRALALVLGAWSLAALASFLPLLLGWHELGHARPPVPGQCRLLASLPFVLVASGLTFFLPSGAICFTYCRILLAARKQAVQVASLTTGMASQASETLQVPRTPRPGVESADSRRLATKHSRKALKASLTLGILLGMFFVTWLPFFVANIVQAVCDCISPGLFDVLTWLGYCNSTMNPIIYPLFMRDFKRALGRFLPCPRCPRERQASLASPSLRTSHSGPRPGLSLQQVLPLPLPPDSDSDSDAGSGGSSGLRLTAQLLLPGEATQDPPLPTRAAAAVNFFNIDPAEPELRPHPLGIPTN
The experiment in a line: 5-HT6 binding affinity, [3H]-LSD displacement on membranes of Hela cells.
Details: not given
As for the experimental part:
The affinity of test compounds for the 5-HT6 receptor is evaluated in the following manner. Cultured Hela cells expressing human cloned 5-HT6 receptors are harvested and centrifuged at low speed (1,000×g) for 10.0 min to remove the culture media. The harvested cells are suspended in half volume of fresh physiological phosphate buffered saline solution and recentrifuged at the same speed. This operation is repeated. The collected cells are then homogenized in ten volumes of 50 mM Tris.HCl (pH 7.4) and 0.5 mM EDTA. The homogenate is centrifuged at 40,000×g for 30.0 min and the precipitate is collected. The obtained pellet is resuspended in 10 volumes of Tris.HCl buffer and recentrifuged at the same speed. The final pellet is suspended in a small volume of Tris.HCl buffer and the tissue protein content is determined in aliquots of 10-25 microliter volumes. […] The volume of the suspended cell membranes is adjusted to give a tissue protein concentration of 1.0 mg/mL of suspension. The prepared membrane suspension (10 times concentrated) is aliquoted in 1.0 mL volumes and stored at −70° C. until used in subsequent binding experiments.
Binding experiments are performed in a 96 well microtiter plate format in a total volume of 200 microliters. […] The test compounds are added in 20.0 microliter volume.
The bound complex caught on the filter disk is allowed to air dry and the radioactivity is measured in a Packard TopCount® equipped with six photomultiplier detectors, after the addition of 40.0 microliter Microscint®-20 scintillant to each shallow well.
Binding in the presence of varying concentrations of test compound is expressed as a percentage of specific binding in the absence of test compound. The results are plotted as log % bound versus log concentration of the test compound.
In the case of `CCCNCCc1ccc2[nH]cc(S(=O)(=O)c3ccccc3)c2c1` [Example 2, N-{2-[3-(phenylsulfonyl)-1H-indol-5-yl]ethyl}-N-propylamine], the negative-log Ki (pKi) (commonly the negative decadic logarithm of the Ki, by convention in mol/L) is 7.46. Still for that read-out and setting: with `CC(C)NCCc1ccc2[nH]cc(S(=O)(=O)c3ccccc3)c2c1` [Example 3, N-{2-[3-(phenylsulfonyl)-1H-indol-5-yl]ethyl}propan-2-amine] the figure was 7.25; with `NCCc1ccc2[nH]cc(S(=O)(=O)c3ccccc3)c2c1` [Example 12, {2-[3-(phenylsulfonyl)-1H-indol-5-yl]ethyl}amine], 8.15; with `O=S(=O)(c1ccccc1)c1c[nH]c2c(CCNC3CC3)cccc12` [Example 22, N-{2-[3-(phenylsulfonyl)-1H-indol-7-yl]ethyl}cyclopropanamine], 8.26.

Still in this experiment, the particulars now being: Table 1; [3H]-LSD 3.0 nM, Hela cell membranes; read-out: Ki (nM) @ 5-HT6 receptor.
As to `CN(C)CCc1ccc2[nH]cc(S(=O)(=O)c3ccccc3)c2c1` [Example 1, N,N-dimethyl-N-{2-[3-(phenylsulfonyl)-1H-indol-5-yl]ethyl}amine], the inhibition constant Ki (as a rule, the equilibrium dissociation constant of an inhibitor or competing ligand from its target) stood at 9 nM. The same measure, in the same setting: to `O=S(=O)(c1ccccc1)c1c[nH]c2ccc(CCNC3CC3)cc12` [Example 4, N-{2-[3-(phenylsulfonyl)-1H-indol-5-yl]ethyl}cyclopropanamine] belongs 15 nM. With `O=S(=O)(c1ccccc1)c1c[nH]c2ccc(CCNC3CCCC3)cc12` [Example 5, N-{2-[3-(phenylsulfonyl)-1H-indol-5-yl]ethyl}cyclopentanamine], the Ki was determined as 37 nM. With `O=S(=O)(c1ccccc1)c1c[nH]c2ccc(CCNCc3ccccc3)cc12` [Example 6, N-benzyl-N-{2-[3-(phenylsulfonyl)-1H-indol-5-yl]ethyl}amine], the Ki is 24 nM. Turning to `CCN(C)CCc1ccc2[nH]cc(S(=O)(=O)c3ccccc3)c2c1` [Example 7, N-ethyl-N-methyl-N-{2-[3-(phenylsulfonyl)-1H-indol-5-yl]ethyl}amine], the Ki was found to be 7 nM. For the molecule `CCN(CC)CCc1ccc2[nH]cc(S(=O)(=O)c3ccccc3)c2c1` [Example 8, N,N-diethyl-N-{2-[3-(phenylsulfonyl)-1H-indol-5-yl]ethyl}amine], the Ki is 17 nM.

For the molecule `O=S(=O)(c1ccccc1)c1c[nH]c2ccc(CCN3CCCC3)cc12` [Example 9, 3-(phenylsulfonyl)-5-(2-pyrrolidin-1-ylethyl)-1H-indole], the inhibitory constant (Ki) amounted to 28 nM.

For `O=S(=O)(c1ccccc1)c1c[nH]c2ccc(CCN3CCCCC3)cc12` [Example 10, 3-(phenylsulfonyl)-5-(2-piperidin-1-ylethyl)-1H-indole], the Ki worked out at 10.3 nM.

`O=S(=O)(c1ccccc1)c1c[nH]c2ccc(CCN3CCOCC3)cc12` [Example 11, 5-(2-morpholin-4-ylethyl)-3-(phenylsulfonyl)-1H-indole]: the inhibitory constant (Ki) was 39 nM. Still for that read-out and setting: to `O=S(=O)(c1ccccc1)c1c[nH]c2ccc(CCN3CCNCC3)cc12` [Example 13, 3-(phenylsulfonyl)-5-(2-piperazin-1-ylethyl)-1H-indole] belongs 68 nM; to `CN(C)CCc1cccc2c(S(=O)(=O)c3ccccc3)c[nH]c12` [Example 18, N,N-dimethyl-N-{2-[3-(phenylsulfonyl)-1H-indol-7-yl]ethyl}amine], 2.3 nM; to `CNCCc1cccc2c(S(=O)(=O)c3ccccc3)c[nH]c12` [Example 19, N-methyl-N-{2-[3-(phenylsulfonyl)-1H-indol-7-yl]ethyl}amine], 2.3 nM. For `CCCNCCc1cccc2c(S(=O)(=O)c3ccccc3)c[nH]c12` [Example 20, N-{2-[3-(phenylsulfonyl)-1H-indol-7-yl]ethyl}-N-propylamine], the Ki worked out at 9.1 nM.

Consider `CC(C)NCCc1cccc2c(S(=O)(=O)c3ccccc3)c[nH]c12` [Example 21, N-{2-[3-(phenylsulfonyl)-1H-indol-7-yl]ethyl}propan-2-amine], for which the Ki is 9.4 nM. On the same count and under the same terms, with `O=S(=O)(c1ccccc1)c1c[nH]c2c(CCNC3CCCC3)cccc12` [Example 23, N-{2-[3-(phenylsulfonyl)-1H-indol-7-yl]ethyl}cyclopentanamine] the figure was 18 nM.
